# In the supplement of paper PMC5752671:
# Where a name gives a salt, the structure may show the parent alone.
# Key:
# Assay in all cases: area under dose-response curve (cell viability) (AUC (arbitrary, % viability x log concentration)); higher = less sensitive (more viable)
# Conditions in all cases: 4 days
# [1] = tested on: KG1
# Procedure, shortened: (§1)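 Fourteen leukemia cell lines were plated on extracellular-matrix-coated 384-well plates. Drugs were added robotically the next day at eight concentrations spanning 4–5 logs within 10^–12–10^–4 M, tailored per drug, in duplicate. Viability was read with CellTiter-Glo after 4 days. The value is the area under a four-parameter sigmoid fitted to the duplicate-averaged dose-response.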
# [2] = tested on: SKM1
# Procedure, shortened: as §1
# [3] = tested on: MOLM/13
# Procedure, shortened: as §1
# [4] = tested on: HL60
# Procedure, shortened: as §1
# [5] = tested on: U937
# Procedure, shortened: as §1
# [6] = tested on: OCI-AML3
# Procedure, shortened: as §1
# [7] = tested on: MOLM/16
# Procedure, shortened: as §1
# [8] = tested on: MV4.11
# Procedure, shortened: as §1
# [9] = tested on: KASUMI1
# Procedure, shortened: as §1
# [10] = tested on: THP-1
# Procedure, shortened: as §1
SMILES,area under dose-response curve [1],area under dose-response curve [2],area under dose-response curve [3],area under dose-response curve [4],area under dose-response curve [5],area under dose-response curve [6],area under dose-response curve [7],area under dose-response curve [8],area under dose-response curve [9],area under dose-response curve [10]
Nc1nc(Cl)nc2c1ncn2[C@H]1C[C@H](O)[C@@H](CO)O1 [Cladribine],553,419,329,515,246,265,359,218,512,496
COc1cc(OC)c(/C=C/S(=O)(=O)Cc2ccc(OC)c(NCC(=O)O)c2)c(OC)c1,403,425,387,473,330,337,314,363,474,403
O=C1c2c(O)ccc(O)c2C(=O)c2c(NCCNCCO)ccc(NCCNCCO)c21 [Mitoxantrone],344,249,185,306,205,288,237,153,285,311
NC1(c2ccc(-c3nc4ccn5c(=O)[nH]nc5c4cc3-c3ccccc3)cc2)CCC1 [MK2206],649,506,510,611,374,523,418,515,449,530
CO[C@H]1C[C@@H]2CC[C@@H](C)[C@@](O)(O2)C(=O)C(=O)N2CCCC[C@H]2C(=O)O[C@H]([C@H](C)C[C@@H]2CC[C@@H](OCCO)[C@H](OC)C2)CC(=O)[C@H](C)/C=C(\C)[C@@H](O)[C@@H](OC)C(=O)[C@H](C)C[C@H](C)/C=C/C=C/C=C/1C [Everolimus],501,430,446,568,313,553,408,392,471,502
O=C(O)C1(C(=O)O)CCC1.[NH2-].[NH2-].[Pt+2] [Carboplatin],726,677,684,751,700,685,672,631,749,737
Cc1c(C(=O)Nc2ccc(N3C[C@@H](C)O[C@@H](C)C3)nc2)cccc1-c1ccc(OC(F)(F)F)cc1 [NVP-LDE-225],675,645,643,685,673,640,609,656,658,660
CC(C)C[C@H](NC(=O)[C@H](Cc1ccccc1)NC(=O)c1cnccn1)B(O)O [Bortezomib],330,268,304,334,298,308,321,338,338,340
COc1cc2ncnc(Nc3ccc(F)c(Cl)c3)c2cc1OCCCN1CCOCC1 [Gefitinib],726,637,619,716,657,596,584,585,707,679
O=C1NC(=O)[C@@H](c2cn3c4c(cccc24)CCC3)[C@@H]1c1c[nH]c2ccccc12 [ARQ-197],505,510,468,524,397,468,390,507,523,478
COc1cc(N2CCC(N3CCN(C)CC3)CC2)ccc1Nc1ncc(Cl)c(Nc2ccccc2S(=O)(=O)C(C)C)n1 [NVP-TAE-684],536,576,556,580,651,603,551,548,560,644
N#CC[C@H](C1CCCC1)n1cc(-c2ncnc3[nH]ccc23)cn1,631,681,652,697,573,669,595,649,681,684
CS(=O)(=O)c1ccc(C(=O)Nc2ccc(Cl)c(-c3ccccn3)c2)c(Cl)c1 [GDC-0449],754,670,693,747,662,683,631,680,730,754
C[C@]1(O)C[C@@H](c2nc(-c3ccc4ccc(-c5ccccc5)nc4c3)c3c(N)nccn32)C1 [OSI-906],594,533,616,481,631,603,531,641,503,658
N.N.[Cl][Pt][Cl] [Cisplatin],760,657,684,764,685,678,650,719,731,761
NC(=O)[C@@H](CCC(F)(F)F)N(Cc1ccc(-c2ncon2)cc1F)S(=O)(=O)c1ccc(Cl)cc1,616,672,693,692,693,682,647,711,634,690
COc1cc(Nc2ncc3c(n2)-c2ccc(Cl)cc2C(c2c(F)cccc2OC)=NC3)ccc1C(=O)O [MLN8237],441,384,306,467,254,355,181,279,452,195
C#Cc1cccc(Nc2ncnc3cc(OCCOC)c(OCCOC)cc23)c1 [Erlotinib HCl],627,665,660,696,642,685,556,628,683,699
CC(C)C[C@@H](C=O)NC(=O)[C@H](CC(C)C)NC(=O)[C@H](CC(C)C)NC(=O)OCc1ccccc1 [MG132],543,421,534,487,464,452,428,402,484,522

SMILES,area under dose-response curve [1],area under dose-response curve [2],area under dose-response curve [3],area under dose-response curve [4],area under dose-response curve [5],area under dose-response curve [6],area under dose-response curve [7],area under dose-response curve [8],area under dose-response curve [9],area under dose-response curve [10]
Cc1ccccc1-n1c(Cn2cnc3c(N)ncnc32)nc2cccc(C)c2c1=O,718,637,659,719,641,664,644,650,665,679
Nc1ccn([C@@H]2O[C@H](CO)[C@@H](O)C2(F)F)c(=O)n1 [Gemcitabine HCl],66.3,32.7,3.55,71.4,6.6,210,15.7,2,119,17.2
CS(=O)(=O)OCCCCOS(C)(=O)=O [Busulfan],667,666,633,653,650,666,651,641,651,636
O=C(c1cc(Cc2n[nH]c(=O)c3ccccc23)ccc1F)N1CCN(C(=O)C2CC2)CC1 [Olaparib],646,592,530,657,632,609,575,500,639,656
CS(=O)(=O)CCNCc1ccc(-c2ccc3ncnc(Nc4ccc(OCc5cccc(F)c5)c(Cl)c4)c3c2)o1 [Lapatinib],765,610,649,747,623,630,611,630,703,706
CCc1cccc2c3c([nH]c12)C(CC)(CC(=O)O)OCC3 (stereo not given) [Etodolac],707,685,654,694,682,683,672,705,678,705
S=c1[nH]cnc2nc[nH]c12 [Mercaptopurine],694,645,603,708,670,646,635,632,693,663
COc1cccc2cc(-c3nc([C@H]4CC[C@H](C(=O)O)CC4)n4ncnc(N)c34)[nH]c12 [OSI-027],383,548,516,576,489,509,429,499,521,566
Cn1cc(C2=C(c3cn(C4CCN(Cc5ccccn5)CC4)c4ccccc34)C(=O)NC2=O)c2ccccc21 [Enzastaurin],734,673,650,745,694,706,685,690,700,703
CN1CCC(COc2cnc(-c3cccc(Cn4nc(-c5cccc(C#N)c5)ccc4=O)c3)nc2)CC1,668,696,645,729,700,696,670,688,715,719
O=NN(CCCl)C(=O)NC1CCCCC1 [Lomustine],733,637,657,719,659,672,611,622,711,720
CO[C@@]12[C@H](COC(N)=O)C3=C(C(=O)C(C)=C(N)C3=O)N1C[C@@H]1N[C@@H]12 [Mitomycin C],471,387,322,419,369,341,341,181,453,384
Nc1ncn([C@H]2C[C@H](O)[C@@H](CO)O2)c(=O)n1 [Decitabine],516,452,235,582,436,503,138,303,516,530
CCc1c2c(nc3ccc(OC(=O)N4CCC(N5CCCCC5)CC4)cc13)-c1cc3c(c(=O)n1C2)COC(=O)[C@]3(O)CC [Irinotecan HCl],627,574,498,625,571,569,516,499,618,627
COC1=CC(c2cc3ccccc3[nH]2)=N/C1=C\c1[nH]c(C)cc1C [Obatoclax],366,435,365,338,376,373,395,390,321,308
CN(C)CC[C@H](CSc1ccccc1)Nc1ccc(S(=O)(=O)NC(=O)c2ccc(N3CCN(Cc4ccccc4-c4ccc(Cl)cc4)CC3)cc2)cc1[N+](=O)[O-] [ABT-737],497,524,395,457,546,543,467,342,403,538
COc1cccc2c1C(=O)c1c(O)c3c(c(O)c1C2=O)C[C@@](O)(C(C)=O)C[C@@H]3O[C@H]1C[C@H](N)[C@H](O)[C@H](C)O1 [Daunorubicin HCl],495,395,407,479,426,454,437,339,440,480
NC(=O)c1ccc(I)c([N+](=O)[O-])c1 [BSI-201],655,664,689,717,676,697,661,683,722,681
